Like-named read-outs stand apart in the source and are kept apart here.
Experiments:
HPK1 = HPK1 (Homo sapiens, UniProt Q92918); assay: HPK1 biochemical assay (ADP-GLO Kinase Assay)
How it was run: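 HPK1 (0.6 ng/μL final) activity was followed with MBP substrate and 10 μM ATP in Tris pH 7.5/MgCl2/BSA/DTT buffer, measured by ADP-Glo luminescence. Compounds were tested as 3-fold dilutions from 10 μM. IC50 came from a three-parameter logistic fit, with inhibition normalised to high/low controls.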

JAK3 = molecular target: T1, JAK3 (Homo sapiens, UniProt P52333); assay: JAK3 biochemical assay (ADP-GLO Kinase Assay); settings: for JAKs/HPK1 IC50 Ratio, B* / JAKs/HPK1 IC50 Ratio, N*: ratio of JAK3 IC50 to HPK1 IC50; for JAKs/HPK1 IC50 Ratio, B*: first testing facility; for JAKs/HPK1 IC50 Ratio, N*: second testing facility
T1 construct: purchased Thermo fisher PV3855
T1 sequence (P52333 781-1124 limits assumed): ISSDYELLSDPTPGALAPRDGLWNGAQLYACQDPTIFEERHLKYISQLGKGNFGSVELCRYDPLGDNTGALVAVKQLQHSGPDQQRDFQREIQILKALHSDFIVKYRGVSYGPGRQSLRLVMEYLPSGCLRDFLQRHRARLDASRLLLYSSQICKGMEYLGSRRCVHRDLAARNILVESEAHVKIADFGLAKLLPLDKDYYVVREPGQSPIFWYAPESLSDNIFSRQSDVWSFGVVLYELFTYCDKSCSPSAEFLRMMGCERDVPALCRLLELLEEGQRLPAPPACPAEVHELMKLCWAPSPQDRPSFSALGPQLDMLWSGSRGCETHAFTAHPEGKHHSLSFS
How it was run: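 Luminescent ADP-Glo readout after a 60 min, 25 °C reaction of JAK3 (0.78 ng) on Poly(E4Y1) (0.2 μg/μL) at 4 μM ATP, Tris pH 7.5 buffer with MgCl2, BSA and DTT. Compounds tested 10 μM down to 0.508 nM in 3-fold steps; % inhibition normalised to DMSO and reference-compound controls, IC50 from three-parameter fit.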

[1] = B*: testing performed in a first testing facility, read-out: HPK1 IC50 (nM) Relative, B*
[2] = N*: testing performed in a second testing facility, read-out: HPK1 IC50 (nM) Relative, N*
[3] = B*: testing performed in a first testing facility, read-out: JAK3 IC50 (nM) Relative, B*
[4] = N*: testing performed in a second testing facility, read-out: JAK3 IC50 (nM) Relative, N*

Sequence of HPK1 (Q92918 whole entry): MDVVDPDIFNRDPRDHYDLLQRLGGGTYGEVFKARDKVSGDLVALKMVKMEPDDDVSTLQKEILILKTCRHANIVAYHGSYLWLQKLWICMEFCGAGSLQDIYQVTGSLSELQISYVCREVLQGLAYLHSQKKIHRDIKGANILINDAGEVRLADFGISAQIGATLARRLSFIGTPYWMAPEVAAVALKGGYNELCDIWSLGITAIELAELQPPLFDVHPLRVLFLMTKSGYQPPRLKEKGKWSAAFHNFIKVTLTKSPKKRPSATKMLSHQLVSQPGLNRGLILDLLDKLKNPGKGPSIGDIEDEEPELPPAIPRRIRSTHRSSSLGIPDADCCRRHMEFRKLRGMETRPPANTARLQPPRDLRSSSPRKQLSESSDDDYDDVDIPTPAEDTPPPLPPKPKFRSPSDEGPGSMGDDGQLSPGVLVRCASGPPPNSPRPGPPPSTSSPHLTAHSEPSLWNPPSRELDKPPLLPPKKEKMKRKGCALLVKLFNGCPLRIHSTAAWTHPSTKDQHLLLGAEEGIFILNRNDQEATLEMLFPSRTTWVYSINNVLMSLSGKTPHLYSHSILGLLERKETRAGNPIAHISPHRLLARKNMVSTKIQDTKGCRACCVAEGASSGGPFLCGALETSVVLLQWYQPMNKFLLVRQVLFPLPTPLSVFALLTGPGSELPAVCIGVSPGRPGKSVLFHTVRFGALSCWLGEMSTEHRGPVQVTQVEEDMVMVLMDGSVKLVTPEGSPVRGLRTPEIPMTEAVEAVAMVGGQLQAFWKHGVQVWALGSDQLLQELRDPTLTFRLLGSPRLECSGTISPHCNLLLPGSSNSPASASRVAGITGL

Structure (SMILES) | IC50 (HPK1; [1]) | IC50 (HPK1; [2]) | IC50 (JAK3; [3]) | IC50 (JAK3; [4]) | JAKs/HPK1 IC50 Ratio, B* (JAK3) | JAKs/HPK1 IC50 Ratio, N* (JAK3)
COc1cc2c(cc1Nc1ncc(Cl)c(-n3cc(P(C)(C)=O)c4ccccc43)n1)CN(C)CC2 [Example 1, (1-(5-Chloro-2-((6-methoxy-2-methyl-1,2,3,4-tetrahydroisoquinolin-7-yl)amino)pyrimidin-4-yl)-1H-indol-3-yl)dimethylphosphine oxide] | ≤ 100 nM | ≤ 100 nM | > 1000 nM | > 1000 nM | 285 | >558
COc1nc2c(cc1Nc1ncc(Cl)c(N3CCc4ccccc43)n1)CN(C)CC2 [Example 19, N-(5-chloro-4-(indolin-1-yl)pyrimidin-2-yl)-2-methoxy-6-methyl-5,6,7,8-tetrahydro-1,6-naphthyridin-3-amine] | ≤ 100 nM | ≤ 100 nM | 500 to 1000 nM | 100 to 500 nM |  | 
COc1cc2c(cc1Nc1ncc(Cl)c(N3CCc4ccccc43)n1)CN(C(C)C)CC2 [Example 22, N-(5-chloro-4-(indolin-1-yl)pyrimidin-2-yl)-2-isopropyl-6-methoxy-1,2,3,4-tetrahydroisoquinolin-7-amine] | ≤ 100 nM |  | > 1000 nM |  | 223 | 
COc1cc2c(cc1Nc1ncc(Cl)c(N3CCc4ccccc43)n1)CNCC2 [Example 23, N-(5-chloro-4-(indolin-1-yl)pyrimidin-2-yl)-6-methoxy-1,2,3,4-tetrahydroisoquinolin-7-amine] | ≤ 100 nM |  | 100 to 500 nM |  | 59 | 
COc1cc2c(cc1Nc1ncc(Cl)c(-n3ncc4ccccc43)n1)CN(C)CC2 [Example 24, N-(5-Chloro-4-(1H-indazol-1-yl)pyrimidin-2-yl)-6-methoxy-2-methyl-1,2,3,4-tetrahydroisoquinolin-7-amine] | ≤ 100 nM |  | > 1000 nM |  | 79 | 
COc1cc2c(cc1Nc1ncc(Cl)c(N3CC(C)(C)c4ccccc43)n1)CN(C)CC2 [Example 25, N-(5-Chloro-4-(3,3-dimethylindolin-1-yl)pyrimidin-2-yl)-6-methoxy-2-methyl-1,2,3,4-tetrahydroisoquinolin-7-amine] | ≤ 100 nM |  | 100 to 500 nM |  | 218 | 
COc1cc2c(cc1Nc1ncc(Cl)c(N3CC(C(=O)O)c4ccccc43)n1)CN(C)CC2 (stereo not drawn) [Example 32, 1-(5-Chloro-2-((6-methoxy-2-methyl-1,2,3,4-tetrahydroisoquinolin-7-yl)amino)pyrimidin-4-yl)indoline-3-carboxylic acid] | ≤ 100 nM |  | ≤ 100 nM |  | 90 | 
COc1cc2c(cc1Nc1ncc(Cl)c(N3CC(C(N)=O)c4ccccc43)n1)CN(C)CC2 (stereo not drawn) [Example 33, 1-(5-Chloro-2-((6-methoxy-2-methyl-1,2,3,4-tetrahydroisoquinolin-7-yl)amino)pyrimidin-4-yl)indoline-3-carboxamide] | ≤ 100 nM |  | ≤ 100 nM |  | 140 | 
COc1cc2c(cc1Nc1ncc(Cl)c(-n3cc(C(N)=O)c4ccccc43)n1)CN(C)CC2 [Example 34] | ≤ 100 nM |  | 500 to 1000 nM |  | 101 | 
COc1cc2c(cc1Nc1ncc3ccn(-c4ccccn4)c3n1)CN(C)CC2 [Example 37, 6-Methoxy-2-methyl-N-(7-(pyridin-2-yl)-7H-pyrrolo[2,3-d]pyrimidin-2-yl)-1,2,3,4-tetrahydroisoquinolin-7-amine] | ≤ 100 nM | ≤ 100 nM |  | > 1000 nM |  | 608

Next, values leading:

IC50 (HPK1; [1]) | IC50 (HPK1; [2]) | IC50 (JAK3; [3]) | IC50 (JAK3; [4]) | JAKs/HPK1 IC50 Ratio, B* (JAK3) | JAKs/HPK1 IC50 Ratio, N* (JAK3) | Structure (SMILES)
≤ 100 nM |  | 100 to 500 nM |  | 88 |  | COc1cc2c(cc1Nc1ncc(Cl)c(N3CCc4cc(F)ccc43)n1)CN(C)CC2 [Example 20, N-(5-chloro-4-(5-fluoroindolin-1-yl)pyrimidin-2-yl)-6-methoxy-2-methyl-1,2,3,4-tetrahydroisoquinolin-7-amine]
≤ 100 nM |  | > 1000 nM |  | 280 |  | COc1cc2c(cc1Nc1ncc(Cl)c(N3CCc4ccc(F)cc43)n1)CN(C)CC2 [Example 21, N-(5-chloro-4-(6-fluoroindolin-1-yl)pyrimidin-2-yl)-6-methoxy-2-methyl-1,2,3,4-tetrahydroisoquinolin-7-amine]
≤ 100 nM | ≤ 100 nM | 500 to 1000 nM | 100 to 500 nM | 223 | 286 | COc1nc2c(cc1Nc1ncc(Cl)c(N3CCc4ncccc43)n1)CN(C)CC2 [Example 29, N-(5-Chloro-4-(2,3-dihydro-1H-pyrrolo[3,2-b]pyridin-1-yl)pyrimidin-2-yl)-2-methoxy-6-methyl-5,6,7,8-tetrahydro-1,6-naphthyridin-3-amine]
≤ 100 nM |  | 100 to 500 nM |  | 78 |  | COc1cc2c(cc1Nc1ncc(Cl)c(-n3cc(C(=O)O)c4ccccc43)n1)CN(C)CC2 [Example 35]
≤ 100 nM | ≤ 100 nM |  | > 1000 nM |  | 287 | COc1cc2c(cc1Nc1ncc3ccn(-c4ccccc4)c3n1)CN(C)CC2 [Example 36, 6-methoxy-2-methyl-N-(7-phenyl-7H-pyrrolo[2,3-d]pyrimidin-2-yl)-1,2,3,4-tetrahydroisoquinolin-7-amine]
